We go through nine molecules from patent US20210330611A1, “THERAPY FOR NEUROLOGICAL DISEASES/DISORDERS” (priority 2020, published 2021).

SMILES strings stand for the structures. Counter-ions that a name gives are not always drawn. Like-named read-outs stand apart in the source and are kept apart here.

For series [1], the system named is fibrin-induced microglia activation. The series is described as follows: Image-based assay of fibrin-induced microglia activation (HTS and dose response). It counts as cell-based, rat. Conditions: for IC50 / inhibition at 10 µM: Rattus norvegicus, Microglia; for inhibition at 10 µM: read-out: Fibrin % inhibition.
Series [2] deals with LPS-induced microglia activation. The series is described as follows: Image-based assay of LPS-induced microglia activation (HTS and dose response). It counts as cell-based, rat. The note with it: Rattus norvegicus, Microglia; for inhibition at 10 µM: read-out: LPS % inhibition.
The test system of series [3] is fibrin- and LPS-induced microglia activation. Nature of the series: cells. The class given is cell-based, rat. Conditions: for inhibition at 10 µM: Rattus norvegicus.
In series [4] the test system is primary rat microglia. Conditions: rat.
The subject of series [5] is primary rat microglia. The note with it: rat. This is another data set of the same source.
A short description of series [6]: in vitro. Conditions: rat, Cell Toxicity IC50 (uM) [cFib assay].
The nature of series [7]: in vitro. Conditions: rat.
Setting [8] is: read-out: Fibrin IC50 (uM) (Suppl. Table 7).
The mark [9] stands for this setting: read-out: LPS IC50 (uM) (Suppl. Table 7).
[10] abbreviates: Microglia, read-out: Cherry-picked Hit (Suppl. Table 7).
Setting [11] is: 48 h, Table 1, dose response 0.001-20 μM, triplicates, primary rat microglia, 48 h, read-out: Fibrin IC50.
[12] abbreviates: dose response, fibrin-induced microglia activation, read-out: Fibrin IC50.
[13] abbreviates: fibrin-induced microglia activation, dose response, read-out: Fibrin IC50 (uM) (Suppl. Table 7).
Setting [14] is: primary microglia HTS, fibrin stimulation, increased cell size (>800 μm^2) as marker of activation.
Where [15] appears, read: 48 h, Table 1, dose response 0.001-20 μM, triplicates, primary rat microglia, 48 h, read-out: LPS IC50.
The mark [16] stands for this setting: 48 h, primary microglia HTS, LPS stimulation, increased cell size (>800 μm^2) as marker of activation.
Setting [17] is: LPS-induced microglia activation, dose response, read-out: LPS IC50 (uM) (Suppl. Table 7).
Where [18] appears, read: dose response, LPS-induced microglia activation, read-out: LPS IC50.
[19] abbreviates: HTS of 1907 compounds, quadrant by fibrin and LPS inhibition.
[20] abbreviates: Microglia, HTS hit classification, read-out: Hit.
The mark [21] stands for this setting: hit classification in microglia HTS, read-out: Cherry-picked Hit (Suppl. Table 7).
[22] abbreviates: quadrant by fibrin and LPS inhibition in HTS of 1907 compounds.
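Wherever Fibrin % cell toxicity is given: share of dead cells sized under 150 µm2 at 10 µM in fibrin-stimulated microglia HTS.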

A word on the IC50: it is the concentration that inhibits the measured activity by half. With `COc1ccc(OC)c(C(O)CNC(=O)CN)c1` (stereo not drawn) [Midodrine hydrochloride, reference compound], the IC50 in series [1] (48 h, read-out: Fibrin IC50) was above 20 µM; in series [1] (read-out: Fibrin IC50 (uM)), above 20 µM; in series [1] (setting [8]) it was above 20 µM; in series [2] (48 h, read-out: LPS IC50) it was above 20 µM; in series [2] (read-out: LPS IC50 (uM)), above 20 µM; in series [2] (setting [9]), above 20 µM. The IC50 in series [6] and in series [7] was above 20 µM each time. The inhibition at 10 µM in series [1] is 95%; in series [2] (48 h) it was 52%; in series [3] (setting [10]), above 50%; in series [3] (Microglia, read-out: Hit), above 50%. In addition, the “Quadrant (FIG. 5b)” value in series [3] is “Q2”. The “Fibrin % cell toxicity” value in series [4] was 3%. Also, in series [5], the “LPS % cell toxicity” value is 1%.
With `CNCCC=C1c2ccccc2CCc2ccccc21` [Nortriptyline hydrochloride, reference compound], the IC50 came to 13 µM in series [1] (48 h, read-out: Fibrin IC50); 13 µM in series [1] (read-out: Fibrin IC50 (uM)); 13 µM in series [1] (setting [8]); 3 µM in series [2] (48 h, read-out: LPS IC50); 3 µM in series [2] (read-out: LPS IC50 (uM)); 3 µM in series [2] (setting [9]). In addition, the half-inhibitory concentration (IC50) in series [6] amounted to 20 µM; in series [7], 10 µM. Further, the inhibition at 10 µM in series [1] is 98%; in series [2] (48 h), 114%; in series [3] (setting [10]), above 50%; in series [3] (Microglia, read-out: Hit), above 50%. Moreover, in series [3], the “Quadrant (FIG. 5b)” value is given as “Q2”. Moreover, the “Fibrin % cell toxicity” value in series [4] is 2%. Besides, the “LPS % cell toxicity” value in series [5] is listed as 81%.
Regarding `C1CCC(C(CC2CCCCN2)C2CCCCC2)CC1` (stereo not drawn) [Perhexiline maleate, reference compound], the half-maximal inhibitory concentration (IC50) in series [1] (setting [11]) is 8 µM; in series [1] (setting [12]), 8 µM; in series [1] (setting [13]) it was 8 µM; in series [2] (setting [15]) it was 3 µM; in series [2] (setting [17]), 3 µM; in series [2] (setting [18]) it was 3 µM. Besides, the IC50 in series [6] (cFib assay) was 20 µM; in series [7], 11 µM. Also, the inhibition at 10 µM in series [1] (setting [14]) was 99%; in series [2] (setting [16]), 123%; in series [3] (setting [20]), above 50%; in series [3] (setting [21]), above 50%. Besides, the “Quadrant (FIG. 5b)” value in series [3] (setting [19]) was “Q2”; in series [3] (Table 1, screen at 10 μM), “Q2”; in series [3] (setting [22]), “Q2”. Also, the “Fibrin % cell toxicity” value in series [4] amounted to 3%. For the same molecule, the “LPS % cell toxicity” value in series [5] was 69%.
As to `O=C1NC(=O)C(c2ccccc2)(c2ccccc2)N1` [Phenytoin sodium, reference compound], the IC50 in series [1] (setting [11]), in series [1] (setting [12]), in series [1] (setting [13]), in series [2] (setting [15]), in series [2] (setting [17]) and in series [2] (setting [18]) was above 20 µM in each case. Also, the IC50 in series [6] (cFib assay) and in series [7] was above 20 µM throughout. The inhibition at 10 µM in series [1] (setting [14]) was 82%; in series [2] (setting [16]), 63%; in series [3] (setting [20]) it was above 50%; in series [3] (setting [21]) it was above 50%. The “Quadrant (FIG. 5b)” value in series [3] (setting [19]) is “Q2”; in series [3] (Table 1, screen at 10 μM), “Q2”; in series [3] (setting [22]), “Q2”. For the same molecule, the “Fibrin % cell toxicity” value in series [4] was determined as 1%. For the same molecule, the “LPS % cell toxicity” value in series [5] is listed as 1%.
On to `O=c1[nH]c2ccccc2n1C1CCN(CCCC(c2ccc(F)cc2)c2ccc(F)cc2)CC1` [Pimozide, reference compound], for which the IC50 was above 20 µM in series [1] (setting [11]); above 20 µM in series [1] (setting [12]); above 20 µM in series [1] (setting [13]); 18 µM in series [2] (setting [15]); 18 µM in series [2] (setting [17]); 18 µM in series [2] (setting [18]). Also, the 50% inhibitory concentration (IC50) in series [6] (cFib assay) and in series [7] was above 20 µM each time. The inhibition at 10 µM is 70% in series [1] (setting [14]), 45% in series [2] (setting [16]), above 50% in series [3] (setting [20]) and above 50% in series [3] (setting [21]). The “Quadrant (FIG. 5b)” value is given as “Q3” in series [3] (setting [19]); “Q3” in series [3] (Table 1, screen at 10 μM); “Q3” in series [3] (setting [22]). In addition, the “Fibrin % cell toxicity” value in series [4] is 2%. The “LPS % cell toxicity” value in series [5] is 0%.
For the molecule `CO[C@H]1C[C@@H]2CC[C@@H](C)[C@@](O)(O2)C(=O)C(=O)N2CCCC[C@H]2C(=O)O[C@H]([C@H](C)C[C@@H]2CC[C@@H](O)[C@H](OC)C2)CC(=O)[C@H](C)/C=C(\C)[C@@H](O)[C@@H](OC)C(=O)[C@H](C)C[C@H](C)/C=C/C=C/C=C/1C` [Rapamycin, reference compound], the IC50 in series [1] (setting [11]), in series [1] (setting [12]), in series [1] (setting [13]), in series [2] (setting [15]), in series [2] (setting [17]) and in series [2] (setting [18]) was below 0.001 µM in each case. Moreover, the 50% inhibitory concentration (IC50) in series [6] (cFib assay) and in series [7] was above 20 µM each time. The inhibition at 10 µM in series [1] (setting [14]) was 86%; in series [2] (setting [16]), 53%; in series [3] (setting [20]) it was above 50%; in series [3] (setting [21]) it was above 50%. The “Quadrant (FIG. 5b)” value in series [3] (setting [19]) is listed as “Q2”; in series [3] (Table 1, screen at 10 μM) it was “Q2”; in series [3] (setting [22]), “Q2”. The “Fibrin % cell toxicity” value in series [4] came out at 3%. The “LPS % cell toxicity” value in series [5] is recorded as 2%.
For the molecule `C#CCN[C@@H]1CCc2ccccc21` [Rasagiline, reference compound], the half-inhibitory concentration (IC50) in series [1] (48 h, read-out: Fibrin IC50) is 20 µM; in series [1] (read-out: Fibrin IC50 (uM)) it was 20 µM; in series [1] (setting [8]), 20 µM; in series [2] (48 h, read-out: LPS IC50), above 20 µM; in series [2] (read-out: LPS IC50 (uM)) it was above 20 µM; in series [2] (setting [9]) it was above 20 µM. Besides, the IC50 in series [6] and in series [7] was above 20 µM throughout. The inhibition at 10 µM in series [1] was 76%; in series [2] (48 h) it was 28%; in series [3] (setting [10]) it was above 50%; in series [3] (Microglia, read-out: Hit), above 50%. In addition, the “Quadrant (FIG. 5b)” value in series [3] is “Q3”. In series [4], the “Fibrin % cell toxicity” value is recorded as 1%. Also, the “LPS % cell toxicity” value in series [5] worked out at 1%.
Regarding `OCc1cc(C(O)CNCCCCCCOCCCCc2ccccc2)ccc1O` (stereo not drawn) [Salmeterol, reference compound], the “Fibrin Selectivity” value in series [1] came to 10. Also, the “Fibrin Selectivity (LOG10)” value in series [1] was 1.02. The concentration for half-maximal inhibition (IC50) in series [1] (48 h, read-out: Fibrin IC50) stood at 1 µM; in series [1] (read-out: Fibrin IC50 (uM)), 1 µM; in series [1] (setting [8]), 1 µM; in series [2] (48 h, read-out: LPS IC50), 14 µM; in series [2] (read-out: LPS IC50 (uM)), 14 µM; in series [2] (setting [9]) it was 14 µM. Moreover, the IC50 in series [6] and in series [7] was above 20 µM in each case. Besides, the inhibition at 10 µM in series [1] was 56%; in series [2] (48 h) it was 29%; in series [3] (setting [10]), above 50%; in series [3] (Microglia, read-out: Hit) it was above 50%. Further, the “Quadrant (FIG. 5b)” value in series [3] was “Q3”. In addition, the “Fibrin % cell toxicity” value in series [4] stood at 1%. The “LPS % cell toxicity” value in series [5] worked out at 1%.
With `CC(C)(C)NC(=O)[C@@H]1C[C@@H]2CCCC[C@@H]2CN1C[C@@H](O)[C@H](Cc1ccccc1)NC(=O)[C@H](CC(N)=O)NC(=O)c1ccc2ccccc2n1` [Saquinavir, reference compound], the half-maximal inhibitory concentration (IC50) in series [1] (setting [11]), in series [1] (setting [12]), in series [1] (setting [13]), in series [2] (setting [15]), in series [2] (setting [17]) and in series [2] (setting [18]) was above 20 µM throughout. Also, the IC50 in series [6] (cFib assay) and in series [7] was above 20 µM each time. In addition, the inhibition at 10 µM in series [1] (setting [14]) was 51%; in series [2] (setting [16]), 56%; in series [3] (setting [20]), above 50%; in series [3] (setting [21]) it was above 50%. Besides, the “Quadrant (FIG. 5b)” value is on record as “Q2” in series [3] (setting [19]); “Q2” in series [3] (Table 1, screen at 10 μM); “Q2” in series [3] (setting [22]). Further, the “Fibrin % cell toxicity” value in series [4] worked out at 1%. Also, the “LPS % cell toxicity” value in series [5] stood at 1%.
